Measurements as given in patent publication US11065209B2, “Use of cannabidiol in the treatment of epilepsy” (GW Research Limited, priority 2015, dated 2021).
Where “and” joins values, the source holds several entries; their conditions need not be identical. Identical values can stand only once. Entries after “also recorded” stand apart in the source; their conditions may differ.

What was measured:
seizures = details: as described in the literature; cited from earlier work
[1] = Solubility of the drug substance in water; assay type: physicochemical
Source text: The drug substance, CBD is insoluble in water. Sesame oil was selected as an excipient to solubilize the drug substance.

[2] = system: seizures in adult patients; details: 200 mg/day of pure CBD; four adult patients; cited from earlier work
[3] = system: seizures in a child with Lennox-Gastaut syndrome; details: CBD in an oily solution; cited from earlier work
seizures in mice = details: after pro-convulsant drugs or an electric current; cited from earlier work
[4] = system: seizures in patients with Tuberous Sclerosis Complex (TSC); test: Expanded access compassionate use program: CBD added to baseline AED in children and young adults with treatment-resistant Tuberous Sclerosis Complex, seizure diaries; assay type: in vivo, human
Protocol: The terms “50% responder” and “50% reduction in seizure” are both terms used in clinical studies. In the present application the terms define the percentage of subjects that experienced a greater than or equal to 50% reduction in the total number of seizures during treatment with CBD in comparison to the number experienced during the baseline period before the CBD was administered.
These subjects were tested with a highly purified extract of cannabidiol (CBD) obtained from a cannabis plant. The participants in the study were part of an expanded access compassionate use program for CBD.
All of these patients diagnosed with TSC presented with one or more types of seizure including tonic, tonic-clonic, atonic, absence, focal seizures with impairment and focal seizures which evolve to secondary generalised seizures.
All patients entered a baseline period of 4 weeks when parents/caregivers kept prospective seizure diaries, noting all countable seizure types.
The patients then received a highly purified CBD extract (greater than 98% CBD w/w) in sesame oil, of known and constant composition, at a dose of 5 mg/kg/day in addition to their baseline anti-epileptic drug (AED) regimen.
Laboratory testing for hematologic, liver, kidney function, and concomitant AED levels was performed at baseline, and after CBD therapy.
All patients were taking at least two concomitant anti-epileptic drugs. These included clobazam; diazepam; lacosamide; lamotrigine; levetiracetam; lorazepam; nordiazepam; n-desmethylclobazam; phenytoin; valproic acid; zonisamide. The average number of concomitant antiepileptic drugs being taken was 2.7. The majority took either clobazam and/or valproic acid.
There were 12 children and young adult patients who received at least 3 months of treatment all of whom suffered from treatment-resistant epilepsy with a diagnosis of Tuberous Sclerosis Complex (TSC).

[5] = system: seizures in institutionalized adult patients; details: 200 mg/day of pure CBD; twelve institutionalized adult patients; open label; cited from earlier work
[6] = system: seizures in adult patients with generalized epilepsy; details: eight adult patients with generalized epilepsy; cited from earlier work
[7] = share of patients, n = 2, after 12 weeks of treatment
[8] = share of patients, n = 3, after 12 weeks of treatment
[9] = share of patients, n = 5, after 12 weeks of treatment
[10] = share of patients, n = 10, after 12 weeks of treatment
[11] = share of patients, n = 14, after 12 weeks of treatment

CCCCCc1cc(O)c2c(c1)OC(C)(C)[C@@H]1CCC(C)=C[C@@H]21 [THC, tetrahydrocannabinol]
effect on seizures (seizures): pro-convulsant

C=C(C)[C@@H]1CCC(C)=C[C@H]1c1c(O)cc(CCCCC)cc1O [CBD, cannabidiol]
solubility in water [1]: insoluble | patients who became seizure free [2]: two of the four | seizure frequency [3]: improvement | prevention of seizures (seizures in mice): able to prevent seizures | patients with at least a fifty percent reduction in the total number of seizures ([4]; TSC patients resistant to existing AED): half of the patients | patients treated in whom total seizure frequency was reduced ([4]; TSC patients, 12 treated): over 80% | effect on incidence of generalised seizure types tonic, atonic, tonic-clonic and absence seizures ([4]; TSC patients, result in words): dramatically reduce; also recorded: virtually eliminate | effect on the number of focal seizures with impairment ([4]; TSC patients, result in words): markedly reduced | TSC patients with a decrease in total seizure frequency ([4]; after 3 months of therapy, 12 patients): ten out of 12 | >50% reduction in seizures (total number of seizures) ([4]; individual TSC subjects 1-12, after 12 weeks treatment): Yes (6×) and No (6×) | Change in baseline (%) for total number of seizures ([4]; individual TSC subjects 1-12, after 12 weeks treatment, CBD 5 up to 25 mg/kg/day added to AED): −93.7% and −15.0% and −71.0% and −33.5% and −80.2% and 0.4% and −100.0% and −9.8% and −74.4% and 108.0% and −39.2% and −63.2% | TSC patients with a greater than 50% reduction in total seizures ([4]; over the 12 weeks of treatment, 12 patients): six of the 12 | effect on the number of seizures ([4]; patients that do not respond well to existing AED, result in words): significantly reduces | <50% reduction in seizures, absence seizures [4, 7]: 0% | <50% reduction in seizures, focal seizures evolving to secondary generalisation [4, 7]: 50% | <50% reduction in seizures, tonic-clonic seizures [4, 7]: 0% | >50% reduction in seizures, absence seizures [4, 7]: 100% | >50% reduction in seizures, focal seizures evolving to secondary generalisation [4, 7]: 50% | >50% reduction in seizures, tonic-clonic seizures [4, 7]: 100% | <50% reduction in seizures, atonic seizures [4, 8]: 0% | >50% reduction in seizures, atonic seizures [4, 8]: 100% | <50% reduction in seizures, tonic seizures [4, 9]: 25% | >50% reduction in seizures, tonic seizures [4, 9]: 75% | <50% reduction in seizures, focal seizures with impairment [4, 10]: 45% | >50% reduction in seizures, focal seizures with impairment [4, 10]: 55% | <50% reduction in seizures, total focal seizures [4, 11]: 55% | >50% reduction in seizures, total focal seizures [4, 11]: 45% | average reduction in the total number of seizures in the responders ([4]; the patients with at least 50% reduction, 12 weeks of treatment): 80.4% and 80% | controlling seizures [5]: ineffective | patients with a marked reduction of seizures [6]: 4
